Earlier results, collected in patent US11759449B2, “Methods for reducing oxidative effects of free radicals” (Hugg LLC, priority 2021, dated 2023).

Experiments:
[1] = background, refs (2, 3)
[2] = background, refs (2, 3); remark: listed apart in the source

In the case of `Oc1ccc(C=Cc2cc(O)cc(O)c2)cc1` [resveratrol], the solubility [1] is listed as “poor” and the bioavailability [2] is listed as “poor”.
